ChEMBL document CHEMBL1681655, “Identification of a new series of non-peptidic NK3 receptor antagonists” (Bioorg Med Chem Lett, 2011)
pKi: −log10 of the molar value.

What was measured:
Neuromedin-K receptor = target: T1, Neuromedin-K receptor (Homo sapiens, UniProt P29371); assay: Displacement of [3H]Lu AE93103 from human NK3 receptor expressed in BHK cells; format: cell-based
T1 sequence (P29371 whole entry): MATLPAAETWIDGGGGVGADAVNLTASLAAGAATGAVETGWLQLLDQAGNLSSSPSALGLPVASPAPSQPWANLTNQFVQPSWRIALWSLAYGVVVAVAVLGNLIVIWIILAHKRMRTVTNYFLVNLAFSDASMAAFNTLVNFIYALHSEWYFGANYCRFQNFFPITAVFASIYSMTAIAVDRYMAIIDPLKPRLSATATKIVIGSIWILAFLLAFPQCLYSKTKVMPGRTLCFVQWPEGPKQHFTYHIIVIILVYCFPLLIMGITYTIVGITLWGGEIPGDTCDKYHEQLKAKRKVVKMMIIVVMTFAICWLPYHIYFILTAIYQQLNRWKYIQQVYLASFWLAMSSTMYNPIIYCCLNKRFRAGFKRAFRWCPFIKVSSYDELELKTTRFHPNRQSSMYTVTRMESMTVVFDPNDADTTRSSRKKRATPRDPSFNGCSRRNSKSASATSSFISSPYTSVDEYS

Liver microsomes = assay: Intrinsic clearance in human liver microsomes; format: ADME, Microsome
[1] = Apparent permeability of the compound in human Caco2 cells; format: ADME, cell-based; conditions: caco-2
Caco-2 = assay: Efflux ratio of permeability from […] in human Caco2 cells; format: ADME, cell-based

Row | Structure (SMILES) | pKi (Neuromedin-K receptor) | CL (Liver microsomes) [L/min] | Papp [1] [×10⁻⁶ cm/s] | Ratio (Caco-2)
1 | CC(=O)NC1(c2ccccc2)CCN(C[C@H]2C[C@]2(C(=O)N(C)Cc2ccccc2)c2ccc(Cl)c(Cl)c2)CC1 | 7.08 |  |  | 
2 | CC(=O)NC1(c2ccccc2)CCN(C[C@@H]2C[C@@]2(C(=O)N(C)Cc2ccc(F)cc2)c2ccc(F)cc2)CC1 | 7.17 |  |  | 
3 | CC(=O)NC1(c2ccccc2)CCN(C[C@@H]2C[C@@]2(C(=O)N(C)Cc2ccc(F)cc2)c2ccc(Cl)cc2)CC1 | 7.44 |  |  | 
4 | CC(=O)NC1(c2ccccc2)CCN(C[C@@H]2C[C@@]2(C(=O)N(C)Cc2ccc(F)cc2)c2ccc(C)cc2)CC1 | 7.43 |  |  | 
5 | COc1ccc([C@]2(C(=O)N(C)Cc3ccc(F)cc3)C[C@H]2CN2CCC(NC(C)=O)(c3ccccc3)CC2)cc1 | 6.46 |  |  | 
6 | CC(=O)NC1(c2ccccc2)CCN(C[C@@H]2C[C@@]2(C(=O)N(C)Cc2ccc(F)cc2)c2ccc(C(F)(F)F)cc2)CC1 | 6.00 |  |  | 
7 | CC(=O)NC1(c2ccccc2)CCN(C[C@@H]2C[C@@]2(C(=O)N(C)Cc2ccc(F)cc2)c2ccc(C#N)cc2)CC1 | 6.57 |  |  | 
8 | CC(=O)NC1(c2ccccc2)CCN(C[C@@H]2C[C@@]2(C(=O)N(C)Cc2ccc(F)cc2)c2cccc(F)c2)CC1 | 6.85 |  |  | 
9 | CC(=O)NC1(c2ccccc2)CCN(C[C@@H]2C[C@@]2(C(=O)N(C)Cc2ccc(F)cc2)c2cccc(Cl)c2)CC1 | 7.49 |  |  | 
10 | CC(=O)NC1(c2ccccc2)CCN(C[C@@H]2C[C@@]2(C(=O)N(C)Cc2ccc(F)cc2)c2cccc(C)c2)CC1 | 7.40 |  |  | 
11 | COc1cccc([C@]2(C(=O)N(C)Cc3ccc(F)cc3)C[C@H]2CN2CCC(NC(C)=O)(c3ccccc3)CC2)c1 | 7.25 |  |  | 
12 | CC(=O)NC1(c2ccccc2)CCN(C[C@@H]2C[C@@]2(C(=O)N(C)Cc2ccc(F)cc2)c2cccc(C(F)(F)F)c2)CC1 | 6.68 |  |  | 
13 | CC(=O)NC1(c2ccccc2)CCN(C[C@@H]2C[C@@]2(C(=O)N(C)Cc2ccc(F)cc2)c2cccc(C#N)c2)CC1 | 5.72 |  |  | 
14 | CC(=O)NC1(c2ccccc2)CCN(C[C@@H]2C[C@@]2(C(=O)N(C)Cc2ccc(F)cc2)c2ccc(F)c(F)c2)CC1 | 7.33 |  |  | 
15 | CC(=O)NC1(c2ccccc2)CCN(C[C@@H]2C[C@@]2(C(=O)N(C)Cc2ccc(F)cc2)c2cc(Cl)cc(Cl)c2)CC1 | 7.05 |  |  | 
16 | CC(=O)NC1(c2ccccc2)CCN(C[C@@H]2C[C@@]2(C(=O)N(C)Cc2ccc(F)cc2)c2ccc3c(c2)OCO3)CC1 | 6.85 |  |  | 
17 | CC(=O)NC1(c2ccccc2)CCN(C[C@@H]2C[C@]2(C(=O)N(C)Cc2ccc(F)cc2)c2cccs2)CC1 | 7.03 |  |  | 
18 | CC(=O)NC1(c2ccccc2)CCN(C[C@@H]2C[C@@]2(C(=O)N(C)Cc2ccc(F)cc2)c2ccsc2)CC1 | 6.96 |  |  | 
19 | CN(Cc1ccccc1)C(=O)[C@@]1(c2ccc(Cl)c(Cl)c2)C[C@H]1CN1CCC(C(=O)N2CCCCC2)(c2ccccc2)CC1 | 8.21 | > 20 | 0.3 | 17
20 | CC(=O)NC1(c2ccccc2)CCN(CC2CC2(C(=O)N(C)Cc2ccccc2Cl)c2ccc(Cl)c(Cl)c2)CC1 (racemic) | 7.70 |  |  | 
21 | CC(=O)NC1(c2ccccc2)CCN(CC2CC2(C(=O)N(C)Cc2ccccc2F)c2ccc(Cl)c(Cl)c2)CC1 (racemic) | 7.74 |  |  | 
22 | CC(=O)NC1(c2ccccc2)CCN(CC2CC2(C(=O)N(C)Cc2cccc(Cl)c2)c2ccc(Cl)c(Cl)c2)CC1 (racemic) | 7.62 |  |  | 
23 | COc1cccc(CN(C)C(=O)C2(c3ccc(Cl)c(Cl)c3)CC2CN2CCC(NC(C)=O)(c3ccccc3)CC2)c1 (racemic) | 7.48 |  |  | 
24 | CC(=O)NC1(c2ccccc2)CCN(CC2CC2(C(=O)N(C)Cc2cccc(C(F)(F)F)c2)c2ccc(Cl)c(Cl)c2)CC1 (racemic) | 7.30 |  |  | 
25 | CSc1ccc(CN(C)C(=O)C2(c3ccc(Cl)c(Cl)c3)CC2CN2CCC(NC(C)=O)(c3ccccc3)CC2)cc1 (racemic) | 7.55 |  |  | 
26 | CC(=O)NC1(c2ccccc2)CCN(CC2CC2(C(=O)N(C)Cc2cccc(Cl)c2Cl)c2ccc(Cl)c(Cl)c2)CC1 (racemic) | 7.62 |  |  | 
27 | CC(=O)NC1(c2ccccc2)CCN(CC2CC2(C(=O)N(C)Cc2cc(Cl)cc(Cl)c2)c2ccc(Cl)c(Cl)c2)CC1 (racemic) | 7.64 |  |  | 
28 | COc1ccc(CN(C)C(=O)C2(c3ccc(Cl)c(Cl)c3)CC2CN2CCC(NC(C)=O)(c3ccccc3)CC2)cc1OC (racemic) | 7.17 |  |  | 
29 | COc1cc(CN(C)C(=O)C2(c3ccc(Cl)c(Cl)c3)CC2CN2CCC(NC(C)=O)(c3ccccc3)CC2)cc(OC)c1 (racemic) | 7.49 |  |  | 
30 | CC(=O)NC1(c2ccccc2)CCN(CC2CC2(C(=O)N(C)Cc2cccs2)c2ccc(Cl)c(Cl)c2)CC1 (racemic) | 7.15 |  |  | 

More lines, in order of rising pKi (Neuromedin-K receptor), values ahead:

Row | pKi (Neuromedin-K receptor) | CL (Liver microsomes) [L/min] | Papp [1] [×10⁻⁶ cm/s] | Ratio (Caco-2) | Structure (SMILES)
31 | 7.77 | 8.5 | 28 | 1.1 | CN(C)C(=O)CCN1CCN(C[C@@H]2C[C@@]2(C(=O)N(C)Cc2ccc(F)cc2)c2ccc(Cl)c(Cl)c2)CC1
32 | 7.80 |  |  |  | CC(=O)NC1(c2ccccc2)CCN(CC2CC2(C(=O)N(C)Cc2ccc(Cl)cc2Cl)c2ccc(Cl)c(Cl)c2)CC1 (racemic)
33 | 7.82 |  |  |  | COc1ccc(CN(C)C(=O)C2(c3ccc(Cl)c(Cl)c3)CC2CN2CCC(NC(C)=O)(c3ccccc3)CC2)cc1 (racemic)
34 | 7.85 |  |  |  | COc1ccccc1CN(C)C(=O)C1(c2ccc(Cl)c(Cl)c2)CC1CN1CCC(NC(C)=O)(c2ccccc2)CC1 (racemic)
35 | 7.85 |  |  |  | CC(=O)NC1(c2ccccc2)CCN(CC2CC2(C(=O)N(C)Cc2ccsc2)c2ccc(Cl)c(Cl)c2)CC1 (racemic)
36 | 7.89 |  |  |  | CC(=O)NC1(c2ccccc2)CCN(CC2CC2(C(=O)N(C)Cc2ccc(Cl)c(Cl)c2)c2ccc(Cl)c(Cl)c2)CC1 (racemic)
37 | 7.92 | 2 | 0.6 | 85 | CN(Cc1ccccc1)C(=O)[C@@]1(c2ccc(Cl)c(Cl)c2)C[C@H]1CN1CCC(NC(N)=O)(c2ccccc2)CC1
38 | 7.92 |  |  |  | CC(=O)NC1(c2ccccc2)CCN(CC2CC2(C(=O)N(C)Cc2cccc(F)c2)c2ccc(Cl)c(Cl)c2)CC1 (racemic)
39 | 7.96 |  |  |  | CC(=O)NC1(c2ccccc2)CCN(CC2CC2(C(=O)N(C)Cc2ccc(Cl)cc2)c2ccc(Cl)c(Cl)c2)CC1 (racemic)
40 | 8.06 | 15 |  |  | CN(Cc1ccc(F)cc1)C(=O)[C@@]1(c2ccc(Cl)c(Cl)c2)C[C@H]1CN1CCN(C(=O)CN2CCCCCC2)CC1
41 | 8.11 | 15 | 0.1 | 120 | CN(Cc1ccccc1)C(=O)[C@@]1(c2ccc(Cl)c(Cl)c2)C[C@H]1CN1CCC(NS(C)(=O)=O)(c2ccccc2)CC1
42 | 8.12 |  |  |  | CC(=O)NC1(c2ccccc2)CCN(CC2CC2(C(=O)N(C)Cc2ccc(C)cc2)c2ccc(Cl)c(Cl)c2)CC1 (racemic)
43 | 8.14 |  |  |  | CC(=O)NC1(c2ccccc2)CCN(C[C@@H]2C[C@@]2(C(=O)N(C)Cc2ccc(F)cc2)c2ccc(C)c(C)c2)CC1
44 | 8.14 | 10 | 2.9 | 4.2 | CN(Cc1ccc(F)cc1)C(=O)[C@@]1(c2ccc(Cl)c(Cl)c2)C[C@H]1CN1CCN(C(=O)CN2CCCCC2)CC1
45 | 8.23 |  |  |  | COc1ccc(CN(C)C(=O)C2(c3ccc(Cl)c(Cl)c3)CC2CN2CCC(NC(C)=O)(c3ccccc3)CC2)c(OC)c1 (racemic)
46 | 8.24 |  |  |  | CC(=O)NC1(c2ccccc2)CCN(C[C@@H]2C[C@@]2(C(=O)N(C)Cc2ccc(F)cc2)c2ccc(Cl)c(Cl)c2)CC1
47 | 8.24 | > 20 |  |  | CN(Cc1ccc(F)cc1)C(=O)[C@@]1(c2ccc(Cl)c(Cl)c2)C[C@H]1CN1CCN(S(=O)(=O)N2CCCC2)CC1
48 | 8.25 | 6.8 | 0.6 | 42 | CNC(=O)NC1(c2ccccc2)CCN(C[C@@H]2C[C@@]2(C(=O)N(C)Cc2ccccc2)c2ccc(Cl)c(Cl)c2)CC1
49 | 8.28 |  |  |  | CC(=O)NC1(c2ccccc2)CCN(CC2CC2(C(=O)N(C)Cc2ccccc2C)c2ccc(Cl)c(Cl)c2)CC1 (racemic)
50 | 8.34 |  |  |  | CC(=O)NC1(c2ccccc2)CCN(CC2CC2(C(=O)N(C)Cc2ccc(C(F)(F)F)cc2)c2ccc(Cl)c(Cl)c2)CC1 (racemic)
51 | 8.38 | 19 | 0.8 | 12 | CC(=O)N(C)C1(c2ccccc2)CCN(C[C@@H]2C[C@@]2(C(=O)N(C)Cc2ccccc2)c2ccc(Cl)c(Cl)c2)CC1
52 | 8.43 | 4.3 |  |  | CN(Cc1ccc(F)cc1)C(=O)[C@@]1(c2ccc(Cl)c(Cl)c2)C[C@H]1CN1CCN(CCN2CCOCC2)CC1
53 | 8.44 | 6.9 | 1.3 | 13 | CN(Cc1ccccc1)C(=O)[C@@]1(c2ccc(Cl)c(Cl)c2)C[C@H]1CN1CCC(c2ccccc2)(N(C)C(=O)C(N)=O)CC1
54 | 8.48 | 16 | 35 | 1.5 | CN(Cc1ccc(F)cc1)C(=O)[C@@]1(c2ccc(Cl)c(Cl)c2)C[C@H]1CN1CCN(C(=O)CN2CCOCC2)CC1
55 | 8.55 | > 20 |  |  | CN(C)C(=O)NC1(c2ccccc2)CCN(C[C@@H]2C[C@@]2(C(=O)N(C)Cc2ccccc2)c2ccc(Cl)c(Cl)c2)CC1
56 | 8.72 | 12 |  |  | CN(Cc1ccc(F)cc1)C(=O)[C@@]1(c2ccc(Cl)c(Cl)c2)C[C@H]1CN1CC(N2CCN(S(=O)(=O)N(C)C)CC2)C1
57 | 8.74 | 12 | 27 | 1.3 | CN(Cc1ccc(F)cc1)C(=O)[C@@]1(c2ccc(Cl)c(Cl)c2)C[C@H]1CN1CCN(CC(=O)N2CCCC2)CC1
58 | 8.82 | 6.3 | 0.4 | > 100 | COC(=O)NC1(c2ccccc2)CCN(C[C@@H]2C[C@@]2(C(=O)N(C)Cc2ccccc2)c2ccc(Cl)c(Cl)c2)CC1
